Where a SMILES comes first, the peptide text is derived from it. The star is where a group is joined. Succinyl(4-O-cholesteryl) = CC(C)CCC[C@@H](C)[C@H]1CC[C@H]2[C@@H]3CC=C4C[C@@H](OC(=O)CCC(=O)*)CC[C@]4(C)[C@H]3CC[C@]12C; X1 = CC(C)CCCC(C)C1CCC2C3CC=C4CC(OC(=O)CCC(=O)*)CCC4(C)C3CCC12C
System: RSV A long virus strain
Assay type: cell-based
Settings: RSV A long virus strain, HEp-2 cells, plaque reduction, 1 day; read-out: IC50
In short: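 HEp-2 cells (30000/well) infected with 100 PFU virus premixed 1 h with compound (8 concentrations, duplicate); after 2 h adsorption, cultured 1 day at 37 °C under 0.8% CMC overlay with compound. Plaques immunostained (RSV antibody, TrueBlue) and counted; IC50 and CC50 by non-linear fitting of % inhibition versus virus and cell controls.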

Point of comparison: `CC[C@H](C)[C@H](NC(=O)[C@H](CCCCN)NC(=O)[C@H](CCCCN)NC(=O)[C@H](CC(C)C)NC(=O)[C@H](CO)NC(=O)[C@H](CCC(=O)O)NC(=O)[C@H](CCC(=O)O)NC(=O)[C@@H](NC(=O)[C@H](CCCCN)NC(=O)[C@H](CCCCN)NC(=O)[C@H](CC(N)=O)NC(=O)[C@@H](NC(=O)[C@H](CCC(=O)O)NC(=O)[C@H](CCC(=O)O)NC(=O)[C@@H](NC(=O)[C@H](CCCCN)NC(=O)[C@H](CCCCN)NC(=O)[C@H](CC(=O)O)NC(=O)[C@H](Cc1ccccc1)NC(=O)[C@H](CCC(=O)O)NC(=O)[C@H](CC(=O)O)NC(C)=O)[C@@H](C)CC)C(C)C)[C@@H](C)CC)C(=O)N[C@@H](CCC(=O)O)C(=O)N[C@@H](CCC(=O)O)C(=O)N[C@@H](CO)C(=O)N[C@@H](CC(=O)O)C(=O)N[C@@H](CCCCN)C(=O)N[C@@H](CCCCN)C(=O)N[C@@H](CC(C)C)C(=O)N[C@@H](CCC(=O)O)C(=O)N[C@@H](CCC(=O)O)C(=O)N[C@H](C(=O)N[C@@H](CCC(=O)O)C(=O)N[C@@H](C)C(=O)N[C@@H](C)C(=O)N[C@@H](C)C(=O)N[C@@H](CCCCN)C(=O)N[C@@H](CCCCNC(=O)CCC(=O)OC1CCC2(C)C(=CCC3C2CCC2(C)C(C(C)CCCC(C)C)CCC32)C1)C(N)=O)C(C)C` (stereo partly drawn) [Compound 21] (Ac-DEFDKKIEEVNKKIEESLKKIEESDKKLEEVEAAAKK(X1)-NH2), IC50 14.6 nM. Against it:
- CC[C@H](C)[C@H](NC(=O)[C@H](CCCCN)NC(=O)[C@H](CCCCN)NC(=O)[C@H](CC(C)C)NC(=O)[C@H](CO)NC(=O)[C@H](CCC(N)=O)NC(=O)[C@H](CC(N)=O)NC(=O)[C@@H](NC(=O)[C@H](CCCCN)NC(=O)[C@H](CCCCN)NC(=O)[C@H](CC(=O)O)NC(=O)[C@H](Cc1ccccc1)NC(=O)[C@H](CCC(=O)O)NC(=O)[C@@H](NC(=O)[C@H](CCCCN)NC(=O)[C@H](CCCCN)NC(=O)[C@H](CC(N)=O)NC(=O)[C@@H](NC(=O)[C@H](CC(C)C)NC(=O)[C@H](CCC(=O)O)NC(=O)[C@H](CC(=O)O)NC(=O)[C@H](CO)NC(C)=O)C(C)C)[C@@H](C)CC)[C@@H](C)CC)C(=O)N[C@@H](CCC(=O)O)C(=O)N[C@@H](CCC(=O)O)C(=O)N[C@@H](CO)C(=O)N[C@@H](CC(=O)O)C(=O)N[C@@H](CCCCN)C(=O)N[C@@H](CCCCN)C(=O)N[C@@H](CCCCN)C(=O)N[C@@H](CC(C)C)C(=O)N[C@@H](CCC(=O)O)C(=O)N[C@@H](C)C(=O)N[C@@H](C)C(=O)N[C@@H](C)C(=O)N[C@@H](CCCCN)C(=O)N[C@@H](CCCCN)C(N)=O [Compound 51] (Ac-SDELVNKKIEFDKKINQSLKKIEESDKKKLEAAAKK-NH2) — within 1.5-fold, 9.9 nM
- Ac-WDEFDASISQVNEKINQSLEEIRKSDELLHNVNALEAAAKK(Succinyl(4-O-cholesteryl))-NH2 [Compound 38] — the same, 14.6 nM
- Ac-SLEQVNEKINQSLAFIRKSDEINQSDEEVNKSDELLEAAAKK-NH2 [Compound 50] — within 1.5-fold, 15.1 nM
- CC[C@H](C)[C@H](NC(=O)[C@H](CO)NC(=O)[C@H](C)NC(=O)[C@H](CC(=O)O)NC(=O)[C@H](Cc1ccccc1)NC(=O)[C@H](CCC(=O)O)NC(=O)[C@H](CC(=O)O)NC(=O)[C@H](Cc1c[nH]c2ccccc12)NC(C)=O)C(=O)N[C@@H](CCC(=O)O)C(=O)N[C@@H](CCC(=O)O)C(=O)N[C@H](C(=O)N[C@@H](CC(N)=O)C(=O)N[C@@H](CCCNC(=N)N)C(=O)N[C@@H](CCCNC(=N)N)C(=O)N[C@H](C(=O)N[C@@H](CCC(=O)O)C(=O)N[C@@H](CCC(=O)O)C(=O)N[C@@H](CO)C(=O)N[C@@H](CC(C)C)C(=O)N[C@@H](CCCNC(=N)N)C(=O)N[C@@H](CCCNC(=N)N)C(=O)N[C@H](C(=O)N[C@@H](CCC(=O)O)C(=O)N[C@@H](CCC(=O)O)C(=O)N[C@@H](CO)C(=O)N[C@@H](CC(=O)O)C(=O)N[C@@H](CCCNC(=N)N)C(=O)N[C@@H](CCCNC(=N)N)C(=O)N[C@@H](CC(C)C)C(=O)N[C@@H](CCC(=O)O)C(=O)N[C@@H](CCC(=O)O)C(=O)N[C@H](C(=O)N[C@@H](CCC(=O)O)C(=O)N[C@@H](C)C(=O)N[C@@H](C)C(=O)N[C@@H](C)C(=O)N[C@@H](CCCCN)C(=O)N[C@@H](CCCCNC(=O)CCC(=O)O[C@H]1CC[C@@]2(C)C(=CC[C@H]3[C@@H]4CC[C@H]([C@H](C)CCCC(C)C)[C@@]4(C)CC[C@@H]32)C1)C(N)=O)C(C)C)[C@@H](C)CC)[C@@H](C)CC)C(C)C [Compound 43] (Ac-WDEFDASIEEVNRRIEESLRRIEESDRRLEEVEAAAKK(Succinyl(4-O-cholesteryl))-NH2) — within 1.5-fold, 18.3 nM
- CC[C@H](C)[C@H](NC(=O)[C@H](CCCCN)NC(=O)[C@H](CCCCN)NC(=O)[C@H](CC(C)C)NC(=O)[C@H](CO)NC(=O)[C@H](CCC(=O)O)NC(=O)[C@H](CCC(=O)O)NC(=O)[C@@H](NC(=O)[C@H](CCCCN)NC(=O)[C@H](CCCCN)NC(=O)[C@H](CC(N)=O)NC(=O)[C@@H](NC(=O)[C@H](CCC(=O)O)NC(=O)[C@H](CCC(=O)O)NC(=O)[C@@H](NC(=O)[C@H](CCCCN)NC(=O)[C@H](CCCCN)NC(=O)[C@H](CC(=O)O)NC(=O)[C@H](Cc1ccccc1)NC(=O)[C@H](CCC(=O)O)NC(=O)[C@H](CC(=O)O)NC(=O)[C@H](CO)NC(C)=O)[C@@H](C)CC)C(C)C)[C@@H](C)CC)C(=O)N[C@@H](CCC(=O)O)C(=O)N[C@@H](CCC(=O)O)C(=O)N[C@@H](CO)C(=O)N[C@@H](CC(=O)O)C(=O)N[C@@H](CCCCN)C(=O)N[C@@H](CCCCN)C(=O)N[C@@H](CC(C)C)C(=O)N[C@@H](CCC(=O)O)C(=O)N[C@@H](C)C(=O)N[C@@H](C)C(=O)N[C@@H](C)C(=O)N[C@@H](CCCCN)C(=O)N[C@@H](CCCCNC(=O)CCC(=O)O[C@H]1CC[C@@]2(C)C(=CC[C@H]3[C@@H]4CC[C@H]([C@H](C)CCCC(C)C)[C@@]4(C)CC[C@@H]32)C1)C(N)=O [Compound 16] (Ac-SDEFDKKIEEVNKKIEESLKKIEESDKKLEAAAKK(Succinyl(4-O-cholesteryl))-NH2) — within 1.5-fold, 10.3 nM
- CC[C@H](C)[C@H](NC(=O)[C@H](CCCCN)NC(=O)[C@H](CCC(=O)O)NC(=O)[C@H](CC(C)C)NC(=O)[C@H](CO)NC(=O)[C@H](CCC(N)=O)NC(=O)[C@H](CC(N)=O)NC(=O)[C@@H](NC(=O)[C@H](CCCCN)NC(=O)[C@H](CCC(=O)O)NC(=O)[C@H](CC(N)=O)NC(=O)[C@@H](NC(=O)[C@H](CCC(N)=O)NC(=O)[C@H](CO)NC(=O)[C@H](C)NC(=O)[C@H](CC(=O)O)NC(=O)[C@H](Cc1ccccc1)NC(=O)[C@@H](NC(=O)[C@H](CC(C)C)NC(=O)[C@H](CCC(=O)O)NC(=O)[C@H](CC(=O)O)NC(=O)[C@H](Cc1ccc(O)cc1)NC(C)=O)C(C)C)C(C)C)[C@@H](C)CC)C(=O)N[C@@H](CCCNC(=N)N)C(=O)N[C@@H](CCCCN)C(=O)N[C@@H](CO)C(=O)N[C@@H](CC(=O)O)C(=O)N[C@@H](CCC(=O)O)C(=O)N[C@@H](CC(C)C)C(=O)N[C@@H](CC(C)C)C(=O)N[C@@H](Cc1c[nH]cn1)C(=O)N[C@@H](CC(N)=O)C(=O)N[C@H](C(=O)NCC(=O)N[C@@H](CO)C(=O)NCC(=O)N[C@@H](CO)C(=O)NCC(=O)N[C@@H](CCCCNC(=O)CCC(=O)O[C@H]1CC[C@@]2(C)C(=CC[C@H]3[C@@H]4CC[C@H]([C@H](C)CCCC(C)C)[C@@]4(C)CC[C@@H]32)C1)C(N)=O)C(C)C [Compound 25] (Ac-YDELVFDASQVNEKINQSLEKIRKSDELLHNVGSGSGK(Succinyl(4-O-cholesteryl))-NH2) — 2-fold higher, 28.7 nM
- Ac-LVKKIDEFDASISQVNEKINQSLEEIRKSDELLHNVGSGSGK(Succinyl(4-O-cholesteryl))-NH2 [Compound 29] — within 1.5-fold, 19.3 nM
- CC[C@H](C)[C@H](NC(=O)[C@H](CCCCN)NC(=O)[C@H](CCCCN)NC(=O)[C@H](CC(C)C)NC(=O)[C@H](CO)NC(=O)[C@H](CCC(=O)O)NC(=O)[C@H](CCC(=O)O)NC(=O)[C@@H](NC(=O)[C@H](CCCCN)NC(=O)[C@H](CCCCN)NC(=O)[C@H](CC(N)=O)NC(=O)[C@@H](NC(=O)[C@H](CCC(=O)O)NC(=O)[C@H](CCC(=O)O)NC(=O)[C@@H](NC(=O)[C@H](CCCCN)NC(=O)[C@H](CCCCN)NC(=O)[C@H](CC(=O)O)NC(=O)[C@H](Cc1ccccc1)NC(=O)[C@H](CCC(=O)O)NC(=O)[C@H](CC(=O)O)NC(=O)[C@H](Cc1c[nH]c2ccccc12)NC(C)=O)[C@@H](C)CC)C(C)C)[C@@H](C)CC)C(=O)N[C@@H](CCC(=O)O)C(=O)N[C@@H](CCC(=O)O)C(=O)N[C@@H](CO)C(=O)N[C@@H](CC(=O)O)C(=O)N[C@@H](CCCCN)C(=O)N[C@@H](CCCCN)C(=O)N[C@@H](CC(C)C)C(=O)N[C@@H](Cc1c[nH]cn1)C(=O)N[C@@H](CC(N)=O)C(=O)N[C@H](C(=O)N[C@@H](CCC(=O)O)C(=O)N[C@@H](C)C(=O)N[C@@H](C)C(=O)N[C@@H](C)C(=O)N[C@@H](CCCCN)C(=O)N[C@@H](CCCCNC(=O)CCC(=O)O[C@H]1CC[C@@]2(C)C(=CC[C@H]3[C@@H]4CC[C@H]([C@H](C)CCCC(C)C)[C@@]4(C)CC[C@@H]32)C1)C(N)=O)C(C)C [Compound 44] (Ac-WDEFDKKIEEVNKKIEESLKKIEESDKKLHNVEAAAKK(Succinyl(4-O-cholesteryl))-NH2) — within 1.5-fold, 12.4 nM
